According to patent US12473339B2, “Acylated glucagon analogues” (Zealand Pharma A/S, priority 2013, dated 2025):
*1 amine or outer side, *2 acyl side, *3 side chain or, on linkers, in order; H or OH if unused. Where a SMILES comes first, the peptide text is derived from it. Side-chain parts run from the residue outwards. [ ]: non-standard residue; d: D form. The star is where a group is joined. C18 diacid = O=C(O)CCCCCCCCCCCCCCCCC(=O)*; γGlu = O=C(O)[C@H](CCC(=O)[*:2])N[*:1]; Ac4c = NC1(C(=O)O)CCC1; AEEA = NCCOCCOCC(=O)O; Aib = CC(C)(N)C(=O)O

Assays:
[1] = target: T1, human glucagon-like peptide 1 receptor (GLP-1R) (Homo sapiens, UniProt P43220); test: GLP-1 receptor efficacy assay (cAMP AlphaScreen, CHO cells); type: cell-based; settings: for Ratio GLP-1/Glucagon: EC50 [GLP-1R] / EC50 [Glucagon-R], human receptors in CHO-K1
T1 construct: expressed in transfected cells
T1 sequence (P43220 24-463): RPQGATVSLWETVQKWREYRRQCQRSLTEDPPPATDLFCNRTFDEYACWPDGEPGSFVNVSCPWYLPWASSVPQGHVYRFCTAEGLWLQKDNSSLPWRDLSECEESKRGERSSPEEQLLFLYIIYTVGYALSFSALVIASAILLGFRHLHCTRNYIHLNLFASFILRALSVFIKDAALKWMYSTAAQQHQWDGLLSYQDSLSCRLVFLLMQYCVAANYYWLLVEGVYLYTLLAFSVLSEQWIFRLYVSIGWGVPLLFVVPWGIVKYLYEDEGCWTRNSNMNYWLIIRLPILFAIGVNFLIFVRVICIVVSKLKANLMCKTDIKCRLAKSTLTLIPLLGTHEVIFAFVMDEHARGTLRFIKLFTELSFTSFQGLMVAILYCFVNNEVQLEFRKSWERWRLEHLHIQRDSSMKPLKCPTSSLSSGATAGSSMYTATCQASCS
Source text: (§1) The cDNA encoding either the human glucagon receptor (Glucagon-R) (primary accession number P47871) or the human glucagon-like peptide 1 receptor (GLP-1R) (primary accession number P43220) were synthesized and cloned into a mammalian expression vector containing a Zeocin resistance marker.
(§2) The mammalian expression vectors encoding the Glucagon-R or the GLP-1-R were transfected into Chinese hamster ovary (CHO) cells by the Attractene method. Stably expressing clones were obtained by Zeocin selection (250 μg/mL) upon limited dilution of cells resistant to the selection pressure. Glucagon-R and GLP-1-R cell clones expressing were picked, propagated and tested in the Glucagon-R and GLP-1-R efficacy assays as described below. One Glucagon-R expressing clone and one GLP-1-R expressing clone were chosen for compound profiling.
(§3) CHO cells expressing the human Glucagon-R, or human GLP-1-R were seeded 24 hours prior to the assay at 30,000 cells per well in 96-well microtiter plates in culture in 100 μl growth medium. On the day of analysis, growth medium was removed and the cells were washed once with 200 μl of assay buffer (Krebs-Ringer-buffer—KRBH). The buffer was removed and the cells were incubated for 15 min at room temperature in 10 μl KRBH (KRBH+10 mM HEPES, 5 mM NaHCO3, 0.1% (V/V) BSA) with 0.1 mM IBMX in deionized water containing increasing concentrations of test peptides. The reaction was stopped by the addition of lysis buffer (0.1% w/v BSA, 5 mM HEPES, 0.3% v/v Tween-20). After cell lysis for 10 min at room temperature, lysates were transferred to 384-well plates and 10 μl of acceptor/donorbead mixture as contained in the AlphaScreen™ cAMP Functional Assay Kit was added. After one hour of incubation at room temperature in the dark, the cAMP content was determined applying the AlphaScreen™ cAMP Functional Assay Kit from Perkin-Elmer according to manufacturer instructions. EC50 and relative efficacies compared to reference compounds (glucagon and GLP-1) were calculated applying computer aided curve fitting. The GLP-1/glucagon ratio is calculated as defined earlier.

[2] = target: T2, endogenous glucagon receptor (Rattus norvegicus, UniProt P30082); test: Agonistic activity on endogenous glucagon receptor (glycogen synthesis rate in primary rat hepatocytes); type: cell-based; settings: inhibition of glycogen synthesis rate (14C-glucose incorporation), 3 hours
T2 construct: Agonistic activity of the test compounds on endogenous glucagon receptor; endogenous in cells; host or cells: primary rat hepatocytes
T2 sequence (P30082 27-485): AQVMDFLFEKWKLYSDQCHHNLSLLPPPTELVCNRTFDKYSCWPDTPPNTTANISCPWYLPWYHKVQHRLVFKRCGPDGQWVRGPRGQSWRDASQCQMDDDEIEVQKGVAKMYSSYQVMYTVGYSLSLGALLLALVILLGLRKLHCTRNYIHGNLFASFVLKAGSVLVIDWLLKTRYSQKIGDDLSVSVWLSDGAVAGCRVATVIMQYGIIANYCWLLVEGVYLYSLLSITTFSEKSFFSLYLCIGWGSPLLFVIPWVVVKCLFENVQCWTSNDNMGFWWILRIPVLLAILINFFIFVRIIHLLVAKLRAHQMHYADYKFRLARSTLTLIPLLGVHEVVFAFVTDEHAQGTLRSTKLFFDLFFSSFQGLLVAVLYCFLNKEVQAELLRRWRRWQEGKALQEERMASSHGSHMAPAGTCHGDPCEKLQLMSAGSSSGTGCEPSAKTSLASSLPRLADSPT
Procedure: Agonistic activity of the test compounds on endogenous glucagon receptor was determined by measuring their effect on rate of glycogen synthesis in primary rat hepatocytes. Upon activation of the glucagon receptor, an inhibition of the glycogen synthesis rate is expected. Rate of glycogen synthesis was determined by counting the amount of radioactively labeled glucose incorporated into the cellular glycogen stores in a defined period of time.
Primary rat hepatocytes were cultured at a density of 40,000 cells/well in a 24-well plate for 24 hours at 37° C. and 5% CO2.
Medium was discarded and the cells washed with PBS. 180 μL of KRBH-based buffer containing 0.1% BSA and glucose at a concentration of 22.5 mM was then added to the wells, followed by test compound and 40 μCi/ml D-[U14C] glucose (20 μL each). Incubation was continued for 3 hours.
At the end of the incubation period, the incubation buffer was aspirated and cells washed once with ice-cold PBS before lysis by incubation for 30 min at room temperature with 100 μL 1 mol/l NaOH.
Cell lysates were transferred to 96-well filter plates and glycogen precipitated by incubating the filter-plates for 120 min at 4° C. followed by washing the filter plates 4 times with ice-cold ethanol (70%). The resulting precipitates were filtered to dryness and the amount of incorporated ^14C-glucose determined by using a Topcount scintillation counter according to manufacturer's recommendations.
Wells with vehicle controls (0.1% (v/v) DMSO in KRBH buffer) were included as reference for non-inhibited glycogen synthesis (100% CTL). Wells without added D-[U^14C] glucose were included as controls for non-specific background signal (subtracted from all values). Endogenous glucagon peptide was used as a positive control.
All treatments were performed at least in duplicates.
Parameters calculated to describe both the potency as well as the agonistic activity of each test compound on the endogenous glucagon receptor are pEC50 and % CTL.
% CTL is determined by calculating the percentage of CPM/well in the presence of the test compound compared to the CPM/well of the vehicle control after subtracting the background CPM/well: [CPM/well(basal)−CPM/well(sample)]*100/[CPM/well(basal)−CPM/well(control)]
An activator of the glucagon receptor will result in an inhibition of the glycogen synthesis rate and will give % CTL values between 0% CTL (complete inhibition) and 100% CTL (no observable inhibition).
The resulting activity curves were plotted as absolute counts (unit: cpm/sample) over log (test compound concentration) and analyzed using the curve fitting program XLfit.
pEC50 (negative logarithmic value of EC50) reflects the potency of the test compound. […]

[3] = Pharmacokinetic parameters after intravenous administration to rats; settings: male, Han/Wistar, rat, in vivo, 20 nmol/kg
Procedure: Pharmacokinetic parameters of the test compounds were determined after intravenous administration to Han/Wistar rats. The acylated GLP-1 analogue semaglutide was also tested for comparison purposes. Male Wistar rats were obtained from Charles River (Germany) weighing approximately 180 to 210 g at time of arrival at the test facility. Rats were caged in European standard rat cages type IV with light cycle of 12-hour dark and 12-hour light. During the study rats were housed in standard rat cages type III. Both diet Altromin 1324 (Altromin, Germany) and water was administered ad libitum during the whole experimental period. The animals were housed in the test facility for at least 4 days in order to assure proper acclimatization. The compounds were first dissolved in 0.1% aqueous ammonia to a nominal concentration of 2 mg/ml, and then diluted to the desired dosing strength (10 μM) in sterile PBS containing 25 mM phosphate buffer, pH 7.4. Intravenous injections corresponding to 20 nmol/kg were given via a lateral tail vein. Blood samples (200 μl) were collected from the periorbital plexus at time points 0.08, 0.25, 0.5, 1, 2, 4, 8, 24, 32 and 48 h post dosing into K3EDTA tubes and centrifuged for 5 minutes at 4° C. within 20 minutes of sampling. […] Individual plasma concentration-time profiles were analysed by a non-compartmental approach using ToxKin™ version 3.2 (Unilog IT Services), and the resulting pharmacokinetic parameters were determined.

[4] = target: T3, human glucagon receptor (Glucagon-R) (Homo sapiens, UniProt P47871); test: Glucagon receptor efficacy assay (cAMP AlphaScreen, CHO cells); type: cell-based; settings: cAMP formation, CHO cells expressing human Glucagon-R, 15 min; read-out: EC50 hGCGR CHO-K1
T3 construct: expressed in transfected cells
T3 sequence (P47871 26-477): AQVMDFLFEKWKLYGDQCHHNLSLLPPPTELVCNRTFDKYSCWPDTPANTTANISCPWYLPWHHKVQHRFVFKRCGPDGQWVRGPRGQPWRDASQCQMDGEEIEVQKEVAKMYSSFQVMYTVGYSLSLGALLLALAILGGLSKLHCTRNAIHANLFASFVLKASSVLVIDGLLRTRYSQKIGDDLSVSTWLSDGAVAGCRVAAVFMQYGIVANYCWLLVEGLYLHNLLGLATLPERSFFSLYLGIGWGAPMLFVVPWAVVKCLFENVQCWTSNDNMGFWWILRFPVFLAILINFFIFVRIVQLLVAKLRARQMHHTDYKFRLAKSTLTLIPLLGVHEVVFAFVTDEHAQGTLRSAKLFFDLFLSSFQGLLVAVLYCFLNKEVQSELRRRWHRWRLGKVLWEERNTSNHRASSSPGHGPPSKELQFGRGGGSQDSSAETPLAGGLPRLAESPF
Source text: as §1, §2, §3

Compound: CC[C@H](C)[C@H](NC(=O)[C@H](Cc1ccccc1)NC(=O)[C@H](CC(=O)O)NC(=O)[C@H](CCCCN)NC(=O)[C@H](C)NC(=O)[C@H](C)NC(=O)[C@H](CCCNC(=N)N)NC(=O)[C@H](CCCCNC(=O)COCCOCCNC(=O)COCCOCCNC(=O)CC[C@H](NC(=O)CCCCCCCCCCCCCCCCC(=O)O)C(=O)O)NC(=O)[C@H](CC(=O)O)NC(=O)[C@H](CC(C)C)NC(=O)[C@H](Cc1ccc(O)cc1)NC(=O)[C@H](CCCCN)NC(=O)[C@H](CO)NC(=O)[C@H](Cc1ccc(O)cc1)NC(=O)[C@H](CC(=O)O)NC(=O)[C@H](CO)NC(=O)[C@@H](NC(=O)[C@H](Cc1ccccc1)NC(=O)[C@@H](NC(=O)CNC(=O)[C@H](CCC(N)=O)NC(=O)C(C)(C)NC(=O)[C@@H](N)Cc1c[nH]cn1)[C@@H](C)O)[C@@H](C)O)C(=O)N[C@@H](CCC(=O)O)C(=O)N[C@@H](Cc1c[nH]c2ccccc12)C(=O)N[C@@H](CC(C)C)C(=O)N[C@@H](CCC(=O)O)C(=O)N[C@@H](CO)C(=O)N[C@@H](C)C(N)=O [Compound 2, H-H-Aib-QGTFTSDYSKYLD-K([17-carboxy-heptadecanoyl]-isoGlu-Peg3-Peg3)-RAAKDFIEWLESA-NH2] (H-H[Aib]QGTFTSDYSKYLDK([AEEA-AEEA-γGlu-C18 diacid])RAAKDFIEWLESA-NH2)
- Ratio GLP-1/Glucagon [1]: 13.54
- EC50 [2]: 0.11 nM
- MRT [3]: 13.6 h
- clearance [3]: 0.11 mL/min/kg
- half-life [3]: 9.1 h

Compound: CC[C@H](C)[C@H](NC(=O)[C@H](Cc1ccccc1)NC(=O)[C@H](CC(=O)O)NC(=O)[C@H](CCCCN)NC(=O)[C@H](C)NC(=O)[C@H](CCCNC(=N)N)NC(=O)[C@H](CCCCNC(=O)COCCOCCNC(=O)COCCOCCNC(=O)CC[C@H](NC(=O)CCCCCCCCCCCCCCCCC(=O)O)C(=O)O)NC(=O)[C@H](CCC(=O)O)NC(=O)[C@H](CC(=O)O)NC(=O)[C@H](CC(C)C)NC(=O)[C@H](Cc1ccc(O)cc1)NC(=O)[C@H](CCCCN)NC(=O)[C@H](CO)NC(=O)[C@H](Cc1ccc(O)cc1)NC(=O)[C@H](CC(=O)O)NC(=O)[C@H](CO)NC(=O)[C@@H](NC(=O)[C@H](Cc1ccccc1)NC(=O)[C@@H](NC(=O)CNC(=O)[C@H](Cc1c[nH]cn1)NC(=O)C1(NC(=O)[C@@H](N)Cc2c[nH]cn2)CCC1)[C@@H](C)O)[C@@H](C)O)C(=O)N[C@@H](CCC(=O)O)C(=O)N[C@@H](Cc1c[nH]c2ccccc12)C(=O)N[C@@H](CC(C)C)C(=O)N[C@@H](CCC(=O)O)C(=O)N[C@@H](CO)C(=O)N[C@@H](C)C(N)=O [Compound 9, H-H-Ac4c-HGTFTSDYSKYLDE-K([17-carboxy-heptadecanoyl]-isoGlu-Peg3-Peg3)-RAKDFIEWLESA-NH2] (H-H[Ac4c]HGTFTSDYSKYLDEK([AEEA-AEEA-γGlu-C18 diacid])RAKDFIEWLESA-NH2)
- EC50 [4]: 0.07 nM
- Ratio GLP-1/Glucagon [1]: 13.86
- EC50 ([1]; cAMP formation, CHO cells expressing human GLP-1-R, 15 min, read-out: EC50 hGLP-1R CHO-K1): 0.97 nM
- EC50 [2]: 0.11 nM

Compound: CC[C@H](C)[C@H](NC(=O)[C@H](Cc1ccccc1)NC(=O)[C@H](CC(=O)O)NC(=O)[C@H](CCCCN)NC(=O)[C@H](C)NC(=O)[C@H](CCCNC(=N)N)NC(=O)[C@H](CCCNC(=N)N)NC(=O)[C@H](CCC(=O)O)NC(=O)[C@H](CC(=O)O)NC(=O)[C@H](CC(C)C)NC(=O)[C@H](Cc1ccc(O)cc1)NC(=O)[C@H](CCCCN)NC(=O)[C@H](CO)NC(=O)[C@H](Cc1ccc(O)cc1)NC(=O)[C@H](CC(=O)O)NC(=O)[C@H](CO)NC(=O)[C@@H](NC(=O)[C@H](Cc1ccccc1)NC(=O)[C@@H](NC(=O)CNC(=O)[C@H](CCC(N)=O)NC(=O)C1(NC(=O)[C@@H](N)Cc2c[nH]cn2)CCC1)[C@@H](C)O)[C@@H](C)O)C(=O)N[C@@H](CCCCNC(=O)CNC(=O)CNC(=O)[C@H](CO)NC(=O)CNC(=O)[C@H](CO)NC(=O)CNC(=O)CC[C@H](NC(=O)CCCCCCCCCCCCCCCCC(=O)O)C(=O)O)C(=O)N[C@@H](Cc1c[nH]c2ccccc12)C(=O)N[C@@H](CC(C)C)C(=O)N[C@@H](CCC(=O)O)C(=O)N[C@@H](CO)C(=O)N[C@@H](C)C(N)=O [Compound 14]
- EC50 [4]: 0.18 nM
- Ratio GLP-1/Glucagon [1]: 3.33
- EC50 [2]: 0.19 nM

Compound: CC[C@H](C)[C@H](NC(=O)[C@H](Cc1ccccc1)NC(=O)[C@H](CC(=O)O)NC(=O)[C@H](CCCCN)NC(=O)[C@H](C)NC(=O)[C@H](CCCNC(=N)N)NC(=O)[C@H](CCCNC(=N)N)NC(=O)[C@H](CCC(=O)O)NC(=O)[C@H](CC(=O)O)NC(=O)[C@H](CC(C)C)NC(=O)[C@H](Cc1ccc(O)cc1)NC(=O)[C@H](CCCCN)NC(=O)[C@H](CO)NC(=O)[C@H](Cc1ccc(O)cc1)NC(=O)[C@H](CC(=O)O)NC(=O)[C@H](CO)NC(=O)[C@@H](NC(=O)[C@H](Cc1ccccc1)NC(=O)[C@@H](NC(=O)CNC(=O)[C@H](CCC(N)=O)NC(=O)C1(NC(=O)[C@@H](N)Cc2c[nH]cn2)CCC1)[C@@H](C)O)[C@@H](C)O)C(=O)N[C@@H](CCC(=O)O)C(=O)N[C@@H](Cc1c[nH]c2ccccc12)C(=O)N[C@@H](CC(C)C)C(=O)N[C@@H](CCC(=O)O)C(=O)N[C@@H](CCCCNC(=O)CNC(=O)CNC(=O)[C@H](CO)NC(=O)CNC(=O)[C@H](CO)NC(=O)CNC(=O)CC[C@H](NC(=O)CCCCCCCCCCCCCCCCC(=O)O)C(=O)O)C(=O)N[C@@H](C)C(N)=O [Compound 16]
- Ratio GLP-1/Glucagon [1]: 3.31
- EC50 [2]: 0.19 nM
